Laboratory results taken from ChEMBL document CHEMBL2062478, “Targeted kinase selectivity from kinase profiling data” (ACS Med Chem Lett, 2012).

Experiments:
[1] = molecular target: Platelet-derived growth factor receptor alpha (Homo sapiens, UniProt P16234); test: Inhibition of PDGFRA
[2] = molecular target: Cyclin-dependent kinase 1 (Homo sapiens, UniProt P06493); test: Inhibition of CDC2
[3] = molecular target: Cell division cycle 7-related protein kinase (Homo sapiens, UniProt O00311); test: Inhibition of CDC7
[4] = molecular target: Tyrosine-protein kinase Lck (Homo sapiens, UniProt P06239); test: Inhibition of LCK
[5] = molecular target: Epidermal growth factor receptor (Homo sapiens, UniProt P00533); test: Inhibition of EGFR
Chain of Epidermal growth factor receptor (P00533 whole entry): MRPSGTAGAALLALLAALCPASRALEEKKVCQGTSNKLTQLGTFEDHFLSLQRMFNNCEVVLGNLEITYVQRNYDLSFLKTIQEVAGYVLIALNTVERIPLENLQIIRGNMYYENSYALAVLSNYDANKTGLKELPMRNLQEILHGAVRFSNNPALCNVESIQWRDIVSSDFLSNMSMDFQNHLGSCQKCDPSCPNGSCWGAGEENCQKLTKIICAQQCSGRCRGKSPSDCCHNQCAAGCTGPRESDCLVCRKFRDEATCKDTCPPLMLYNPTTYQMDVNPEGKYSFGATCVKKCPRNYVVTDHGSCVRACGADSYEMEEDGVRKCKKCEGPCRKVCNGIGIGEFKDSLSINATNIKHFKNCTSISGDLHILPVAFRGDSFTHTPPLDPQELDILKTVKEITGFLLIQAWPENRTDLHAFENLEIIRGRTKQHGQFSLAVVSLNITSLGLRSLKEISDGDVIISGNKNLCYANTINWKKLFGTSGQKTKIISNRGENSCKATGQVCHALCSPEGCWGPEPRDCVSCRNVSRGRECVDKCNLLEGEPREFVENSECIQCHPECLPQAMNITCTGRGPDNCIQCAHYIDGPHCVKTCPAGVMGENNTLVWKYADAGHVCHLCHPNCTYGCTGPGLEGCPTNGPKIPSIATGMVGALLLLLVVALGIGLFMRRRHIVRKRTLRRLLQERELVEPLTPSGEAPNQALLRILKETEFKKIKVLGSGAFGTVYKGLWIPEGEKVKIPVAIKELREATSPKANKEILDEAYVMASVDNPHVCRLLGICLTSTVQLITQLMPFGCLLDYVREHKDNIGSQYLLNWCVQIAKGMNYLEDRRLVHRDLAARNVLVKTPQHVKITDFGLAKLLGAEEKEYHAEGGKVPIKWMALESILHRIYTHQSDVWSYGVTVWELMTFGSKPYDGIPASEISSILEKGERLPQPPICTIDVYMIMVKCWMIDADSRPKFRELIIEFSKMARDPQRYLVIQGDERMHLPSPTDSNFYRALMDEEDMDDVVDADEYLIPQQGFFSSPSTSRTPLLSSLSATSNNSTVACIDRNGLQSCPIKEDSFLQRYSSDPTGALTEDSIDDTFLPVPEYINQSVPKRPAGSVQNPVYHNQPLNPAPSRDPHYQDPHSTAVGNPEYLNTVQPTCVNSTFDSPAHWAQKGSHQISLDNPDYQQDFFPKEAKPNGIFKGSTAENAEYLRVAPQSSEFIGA

Chain of Platelet-derived growth factor receptor alpha (P16234 whole entry): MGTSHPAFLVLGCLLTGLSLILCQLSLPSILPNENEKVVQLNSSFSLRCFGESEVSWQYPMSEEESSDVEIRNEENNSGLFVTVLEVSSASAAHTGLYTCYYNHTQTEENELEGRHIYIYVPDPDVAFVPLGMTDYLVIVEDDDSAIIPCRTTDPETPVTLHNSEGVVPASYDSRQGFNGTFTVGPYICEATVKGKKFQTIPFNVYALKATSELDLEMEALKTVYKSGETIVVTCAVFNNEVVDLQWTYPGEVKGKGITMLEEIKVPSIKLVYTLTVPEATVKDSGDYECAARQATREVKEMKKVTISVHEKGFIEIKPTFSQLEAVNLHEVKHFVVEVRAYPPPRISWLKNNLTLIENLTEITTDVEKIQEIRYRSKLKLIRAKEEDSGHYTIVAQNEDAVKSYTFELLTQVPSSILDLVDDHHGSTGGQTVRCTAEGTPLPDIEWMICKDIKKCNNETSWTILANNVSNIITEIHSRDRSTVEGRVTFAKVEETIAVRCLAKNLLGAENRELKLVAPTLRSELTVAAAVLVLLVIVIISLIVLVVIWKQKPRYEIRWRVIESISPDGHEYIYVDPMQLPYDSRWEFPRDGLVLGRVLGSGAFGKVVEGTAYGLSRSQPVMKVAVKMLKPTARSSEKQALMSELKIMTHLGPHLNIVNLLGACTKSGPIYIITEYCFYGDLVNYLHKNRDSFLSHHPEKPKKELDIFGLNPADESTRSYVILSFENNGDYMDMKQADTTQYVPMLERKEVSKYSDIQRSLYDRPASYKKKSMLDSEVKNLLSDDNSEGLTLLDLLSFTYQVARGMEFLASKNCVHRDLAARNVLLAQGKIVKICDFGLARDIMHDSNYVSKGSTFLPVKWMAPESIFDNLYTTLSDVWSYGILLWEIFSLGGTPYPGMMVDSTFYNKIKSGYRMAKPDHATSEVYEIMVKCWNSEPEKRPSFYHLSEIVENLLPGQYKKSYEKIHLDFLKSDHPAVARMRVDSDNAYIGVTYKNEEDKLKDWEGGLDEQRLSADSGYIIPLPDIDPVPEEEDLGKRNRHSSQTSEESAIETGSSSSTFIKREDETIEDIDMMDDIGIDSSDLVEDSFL
Chain of Cyclin-dependent kinase 1 (P06493 whole entry): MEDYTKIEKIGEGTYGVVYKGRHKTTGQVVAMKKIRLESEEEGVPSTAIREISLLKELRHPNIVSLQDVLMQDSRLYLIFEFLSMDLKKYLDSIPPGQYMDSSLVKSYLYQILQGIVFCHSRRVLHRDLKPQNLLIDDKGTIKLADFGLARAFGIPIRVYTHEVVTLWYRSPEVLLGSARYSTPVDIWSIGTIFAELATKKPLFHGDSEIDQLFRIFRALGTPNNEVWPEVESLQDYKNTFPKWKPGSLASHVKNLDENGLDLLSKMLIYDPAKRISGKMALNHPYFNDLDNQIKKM
Chain of Cell division cycle 7-related protein kinase (O00311 whole entry): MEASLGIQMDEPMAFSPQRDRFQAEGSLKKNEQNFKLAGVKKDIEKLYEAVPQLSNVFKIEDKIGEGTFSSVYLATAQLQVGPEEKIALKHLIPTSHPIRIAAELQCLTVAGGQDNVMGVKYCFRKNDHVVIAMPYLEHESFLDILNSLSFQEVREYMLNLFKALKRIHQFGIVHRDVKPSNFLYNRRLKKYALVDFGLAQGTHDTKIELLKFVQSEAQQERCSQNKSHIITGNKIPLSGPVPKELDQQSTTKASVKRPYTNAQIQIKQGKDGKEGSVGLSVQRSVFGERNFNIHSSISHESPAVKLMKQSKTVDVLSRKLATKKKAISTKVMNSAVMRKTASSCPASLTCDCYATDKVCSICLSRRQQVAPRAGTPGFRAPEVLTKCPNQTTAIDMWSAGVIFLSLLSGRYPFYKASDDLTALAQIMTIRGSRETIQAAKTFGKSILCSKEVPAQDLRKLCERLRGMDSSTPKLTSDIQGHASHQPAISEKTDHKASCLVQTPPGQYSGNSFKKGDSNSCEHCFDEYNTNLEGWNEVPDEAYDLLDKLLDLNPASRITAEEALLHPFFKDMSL
Chain of Tyrosine-protein kinase Lck (P06239 whole entry): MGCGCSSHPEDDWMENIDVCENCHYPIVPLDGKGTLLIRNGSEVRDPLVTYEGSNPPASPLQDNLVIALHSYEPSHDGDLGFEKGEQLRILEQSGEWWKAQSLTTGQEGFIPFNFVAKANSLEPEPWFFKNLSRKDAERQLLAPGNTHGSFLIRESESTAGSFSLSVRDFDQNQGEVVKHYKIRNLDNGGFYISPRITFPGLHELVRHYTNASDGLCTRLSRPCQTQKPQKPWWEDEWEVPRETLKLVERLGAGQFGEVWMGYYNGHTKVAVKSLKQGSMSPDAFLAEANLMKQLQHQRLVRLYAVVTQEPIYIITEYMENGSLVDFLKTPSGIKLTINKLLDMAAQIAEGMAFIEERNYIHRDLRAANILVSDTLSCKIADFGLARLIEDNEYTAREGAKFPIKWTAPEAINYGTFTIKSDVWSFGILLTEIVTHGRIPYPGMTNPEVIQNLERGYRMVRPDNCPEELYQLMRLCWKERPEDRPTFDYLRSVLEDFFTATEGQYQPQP

## CC(C)(C(N)=O)n1cc(-c2cnc(N)c3c(-c4ccc(NC(=O)Nc5cccc(F)c5)cc4)csc23)cn1
[1]
  Ki: > 10000 nM

## Cc1cccc(NC(=O)Nc2ccc(-c3csc4c(C#CC(C)(C)N)cnc(N)c34)cc2)c1
[1]
  Ki: > 10000 nM

## O=C(Nc1n[nH]c2ccc(-c3cn(Cc4ccccc4)nn3)cc12)c1cccc(Cl)c1
[2]
  Ki: > 10000 nM

## C[C@@H](O)Cn1cc(-c2cnc(N)c3c(-c4ccc(NC(=O)Nc5cccc(F)c5)cc4)csc23)cn1
[1]
  Ki: > 10000 nM

## O[C@H]1CC[C@H](Nc2nc(Cl)cc(-c3c[nH]c4ncccc34)n2)CC1
[3]
  Ki: 0.158 nM
[2]
  Ki: 39.8 nM

## CN(C)[C@H]1CC[C@H](Nc2nc(Cl)cc(-c3c[nH]c4ncccc34)n2)CC1
[3]
  Ki: 0.316 nM
[2]
  Ki: > 10000 nM

## O=C(Cc1ccccc1)Nc1cc(-c2nc3sccn3c2-c2ccnc(Nc3ccc(N4CCOCC4)cc3)n2)ccc1Cl
[4]
  Ki: 79.4 nM
[5]
  Ki: > 10000 nM
